Data as given in patent publication US7662825B2, “N-pyrazinyl-phenylsulphonamides and their use in the treatment of chemokine mediated diseases” (AstraZeneca AB, priority 2002, dated 2010).

| melting point [°C] | SMILES |
| --- | --- |
| 205 to 206 | O=S(=O)(Nc1ncc(Cl)nc1OCc1cncnc1)c1cccc(Cl)c1Cl [Example 37, N-[5-Chloro-3-(5-pyrimidinylmethoxy)-2-pyrazinyl]-2,3-dichlorobenzenesulphonamide] |
| 172 to 173 | COc1ncc(Cl)nc1NS(=O)(=O)c1ccccc1Cl [Example 38, 2-Chloro-N-(6-chloro-3-methoxy-2-pyrazinyl)benezenesulphonamide] |
| 126 to 127 | COc1ncc(Cl)nc1NS(=O)(=O)c1cccc(Cl)c1 [Example 39, 3-Chloro-N-(6-chloro-3-methoxy-2-pyrazinyl)benezenesulphonamide] |
| 174 to 175 | COc1ncc(Cl)nc1NS(=O)(=O)c1ccc(Cl)cc1 [Example 40, 4-Chloro-N-(6-chloro-3-methoxy-2-pyrazinyl)benezenesulphonamide] |
| 189 to 190 | COc1ncc(Cl)nc1NS(=O)(=O)c1ccc(Cl)cc1Cl [Example 41, N-(6-Chloro-3-methoxy-2-pyrazinyl)-2,4-dichlorobenezenesulphonamide] |
| 176 to 177 | COc1ncc(Cl)nc1NS(=O)(=O)c1ccc(Cl)c(Cl)c1 [Example 42, N-(6-Chloro-3-methoxy-2-pyrazinyl)-3,4-dichlorobenezenesulphonamide] |
| 133 to 135 | COc1nc(C)cnc1NS(=O)(=O)c1cccc(Cl)c1C [Example 43, 3-Chloro-N-(3-methoxy-5-methyl-2-pyrazinyl)-2-methylbenezenesulphonamide] |
| 123 to 125 | COc1nc(C)cnc1NS(=O)(=O)c1cccc(Cl)c1 [Example 45, 3-Chloro-N-(3-methoxy-5-methyl-2-pyrazinyl)benezenesulphonamide] |
| 155 to 156 | COc1nc(C)cnc1NS(=O)(=O)c1ccc(Cl)cc1 [Example 46, 4-Chloro-N-(3-methoxy-5-methyl-2-pyrazinyl)benezenesulphonamide] |
| 135 to 136 | COc1nc(C)cnc1NS(=O)(=O)c1ccc(Cl)cc1Cl [Example 47, 2,4-Dichloro-N-(3-methoxy-5-methyl-2-pyrazinyl)benezenesulphonamide] |
| 148 to 149 | COc1nc(C)cnc1NS(=O)(=O)c1ccc(Cl)c(Cl)c1 [Example 48, 3,4-Dichloro-N-(3-methoxy-5-methyl-2-pyrazinyl)benezenesulphonamide] |
| 156 to 157 | COc1nc(Br)cnc1NS(=O)(=O)c1ccccc1OC(F)(F)F [Example 49, N-(5-Bromo-3-methoxy-2-pyrazinyl)-2-trifluoromethoxybenezenesulphonamide] |
| 150 to 152 | COc1nc(Cl)cnc1NS(=O)(=O)c1cccc(Cl)c1C [Example 50, 3-Chloro-N-(5-chloro-3-methoxy-2-pyrazinyl)-2-methylbenzenesulphonamide] |
| 190 to 192 | COc1nc(Cl)cnc1NS(=O)(=O)c1ccccc1Cl [Example 51, 2-Chloro-N-(5-chloro-3-methoxy-2-pyrazinyl)benzenesulphonamide] |
| 129 to 130 | COc1nc(Cl)cnc1NS(=O)(=O)c1cccc(Cl)c1 [Example 52, 3-Chloro-N-(5-chloro-3-methoxy-2-pyrazinyl)benzenesulphonamide] |
| 179 to 180 | COc1nc(Cl)cnc1NS(=O)(=O)c1ccc(Cl)cc1 [Example 53, 4-Chloro-N-(5-chloro-3-methoxy-2-pyrazinyl)benzenesulphonamide] |
| 170 to 171 | COc1nc(Cl)cnc1NS(=O)(=O)c1ccc(Cl)cc1Cl [Example 54, N-(5-Chloro-3-methoxy-2-pyrazinyl)-2,4-dichlorobenzenesulphonamide] |
| 167 to 168 | COc1nc(N2CCOCC2)cnc1NS(=O)(=O)c1cccc(Cl)c1Cl [Example 55, 2,3-Dichloro-N-[3-methoxy-5-(4-morpholinyl)-2-pyrazinyl]benzenesulphonamide] |
| 138 to 139 | COc1cnc(NS(=O)(=O)c2cccc(Cl)c2Cl)c(OC)n1 [Example 56, 2,3-Dichloro-N-[3,5-dimethoxy-2-pyrazinyl]benzenesulphonamide] |
| 179 to 180 | COc1nc(N2CCCC2)cnc1NS(=O)(=O)c1cccc(Cl)c1Cl [Example 57] |
| 177 to 178 | COc1nc(Cl)c(Cl)nc1NS(=O)(=O)c1cccc(Cl)c1C [Example 58, 3-Chloro-N-(5,6-dichloro-3-methoxy-2-pyrazinyl)-2-methylbenzenesulphonamide] |
| 172 to 173 | COc1nc(Cl)c(Cl)nc1NS(=O)(=O)c1cccc(Cl)c1Cl [Example 59, 2,3-Dichloro-N-(5,6-dichloro-3-methoxy-2-pyrazinyl)benzenesulphonamide] |
| 217 to 218 | COc1nc(Cl)c(Cl)nc1NS(=O)(=O)c1ccccc1Cl [Example 60, 2-Chloro-N-(5,6-dichloro-3-methoxy-2-pyrazinyl)benzenesulphonamide] |

| melting point [°C] | SMILES |
| --- | --- |
| 171 to 172 | COc1nc(Cl)c(Cl)nc1NS(=O)(=O)c1cccc(Cl)c1 [Example 61, 3-Chloro-N-(5,6-dichloro-3-methoxy-2-pyrazinyl)benzenesulphonamide] |
| 186 to 187 | COc1nc(Cl)c(Cl)nc1NS(=O)(=O)c1ccc(Cl)cc1 [Example 62, 4-Chloro-N-(5,6-dichloro-3-methoxy-2-pyrazinyl)benzenesulphonamide] |
| 171 to 172 | COc1nc(Cl)c(Cl)nc1NS(=O)(=O)c1ccc(Cl)cc1Cl [Example 63, 2,4-Dichloro-N-(5,6-dichloro-3-methoxy-2-pyrazinyl)benzenesulphonamide] |
| 189 to 191 | COc1nc(Cl)c(Cl)nc1NS(=O)(=O)c1ccc(Cl)c(Cl)c1 [Example 64, 3,4-Dichloro-N-(5,6-dichloro-3-methoxy-2-pyrazinyl)benzenesulphonamide] |
| 165 to 166 | COc1nc(C)c(C)nc1NS(=O)(=O)c1cccc(Cl)c1Cl [Example 65, 2,3-Dichloro-N-(3-methoxy-5,6-dimethyl-2-pyrazinyl)benzenesulphonamide] |
| 163 to 165 | COc1nc(OC)c(NS(=O)(=O)c2cccc(Cl)c2Cl)nc1Cl [Example 66, 2,3-Dichloro-N-(6-chloro-3,5-dimethoxy-2-pyrazinyl)benzenesulphonamide] |
| 150 to 151 | COc1nc(N2CCOCC2)c(Cl)nc1NS(=O)(=O)c1cccc(Cl)c1Cl [Example 67, 2,3-Dichloro-N-[6-chloro-3-methoxy-5-(4-morpholinyl)-2-pyrazinyl]benzenesulphonamide] |
| 145 to 146 | COc1nc(N(C)C)c(Cl)nc1NS(=O)(=O)c1cccc(Cl)c1Cl [Example 69, 2,3-Dichloro-N-[6-chloro-5-dimethylamino-3-methoxy-2-pyrazinyl]benzenesulphonamide] |
| 193 to 194 | COCCOc1nc(OC)c(NS(=O)(=O)c2cccc(Cl)c2Cl)nc1Cl [Example 70, 2,3-Dichloro-N-[6-chloro-3-methoxy-5-(2-methoxyethoxy)-2-pyrazinyl]benzenesulphonamide] |
| 199 to 200 | COc1nc(-c2cnccn2)cnc1NS(=O)(=O)c1cccc(Cl)c1Cl [Example 72, 2,3-Dichloro-N-[6-methoxy-5-([2,2′]bipyrazinylyl)]benzenesulphonamide] |
| 186 to 187 | COc1nc(Oc2ccc(C(=O)O)cc2)cnc1NS(=O)(=O)c1cccc(Cl)c1Cl [Example 73, 4-[5-(2,3-Dichlorobenzenesulphonylamino)-6-methoxy-2-pyrazinyloxy]benzoic acid] |
| 181 to 182 | O=S(=O)(Nc1ncc(Cl)nc1Cl)c1cccc(Cl)c1Cl [Example 74, 2,3-Dichloro-N-(3,5-dichloro-2-pyrazinyl)benzenesulphonamide] |
| 177 to 178 | COCCNc1nc(OC)c(NS(=O)(=O)c2cccc(Cl)c2Cl)nc1Cl [Example 75, 2,3-Dichloro-N-{6-chloro-3-methoxy-5-([2-methoxyethyl)amino]-2-pyrazinyl}benzenesulphonamide] |
| 150 to 152 | COc1nc(NCCNC(C)=O)c(Cl)nc1NS(=O)(=O)c1cccc(Cl)c1Cl [Example 76, N-{2-[3-Chloro-5-(2,3-dichlorobenzenesulphonylamino)-6-methoxy-2-pyrazinylamino]ethyl}acetamide] |
| 222 to 224 | N#Cc1cnc(NS(=O)(=O)c2cccc(Cl)c2Cl)c(OCc2cccnc2)n1 [Example 78, 2,3-Dichloro-N-[5-cyano-3-(3-pyridinylmethoxy)-2-pyrazinyl]benzenesulphonamide] |
| 185 to 186 | CNc1nc(OC)c(NS(=O)(=O)c2cccc(Cl)c2Cl)nc1Cl [Example 79, 2,3-Dichloro-N-(6-chloro-3-methoxy-5-methylamino-2-pyrazinyl)benzenesulphonamide] |
| 141 to 142 | COc1nc(SC)cnc1NS(=O)(=O)c1cccc(Cl)c1Cl [Example 80, 2,3-Dichloro-N-(3-methoxy-5-methylsulphanyl-2-pyrazinyl)benzenesulphonamide] |
| 169 to 170 | COc1nc(-c2ccc(F)cc2F)cnc1NS(=O)(=O)c1cccc(Cl)c1Cl [Example 81, 2,3-Dichloro-N-[5-(2,4-difluorophenyl)-3-methoxy-2-pyrazinyl]benzenesulphonamide] |
| 152 to 153 | COC(=O)CSc1cnc(NS(=O)(=O)c2cccc(Cl)c2Cl)c(OC)n1 [Example 82, [5-(2,3-Dichlorobenzenesulphonylamino)-6-methoxy-2-pyrazinylsulphanyl]acetic acid methyl ester] |
| 138 to 140 | COc1nc(SCC(=O)O)cnc1NS(=O)(=O)c1cccc(Cl)c1Cl [Example 83, [5-(2,3-Dichlorobenzenesulphonylamino)-6-methoxy-2-pyrazinylsulphanyl]acetic acid] |
| 119 to 120 | COc1nc(SCc2ccccc2Cl)cnc1NS(=O)(=O)c1cccc(Cl)c1Cl [Example 84, 2,3-Dichloro-N-[5-(2-chlorobenzylsulphanyl)-3-methoxy-2-pyrazinyl]benzenesulphonamide] |
| 223 to 228 | Cc1cnc(NS(=O)(=O)c2cccc(Cl)c2Cl)c(OCc2ccc[n+]([O-])c2)n1 [Example 86] |
